Results taken from patent US20100129800A1, “POLYMERS AND THEIR USE AS FLUORESCENT LABELS” (priority 2007, published 2010).
Ends that are not written are not given here. Nct = N-((2S,3R)-1,3-dihydroxybutan-2-yl)-(4a,10a-dihydro-10,11-diazabenzo[b]fluoren-10-yl)acetamide monomer; Qut = N-(1,3-dihydroxybutan-2-yl)-10H-indolo[3,2-d]quinoline-11-carboxamide monomer; Act = N-(1,3-dihydroxybutan-2-yl)acridine-9-carboxamide monomer; code p = not defined here; Agt = not defined here

System: not listed separately
Assay: Fluorescence properties of the new compounds (excitation and emission wavelengths)
Type: physicochemical
Conditions: free compound

| Fluorescence Excitation (nm) | Fluorescence emission (nm) | Molecule |
| --- | --- | --- |
| 348 | 505 | CC(=O)NC1CC(C(=O)NC2CC(C(=O)NC3CC(C(N)=O)N(C(=O)CNC(=O)c4c5ccccc5nc5c4[nH]c4ccccc45)C3)N(C(=O)CNC(=O)c3c4ccccc4nc4c3[nH]c3ccccc34)C2)N(C(=O)CNC(=O)c2c3ccccc3nc3c2[nH]c2ccccc23)C1 (stereo not shown) [Example 57, N^4-Acetyl-4-amino-{2-(10H-indolo[3,2-b]quinoline-11-carboxamide)acetyl}prolinyl-4-amino-{2-(10H-indolo[3,2-b]quinoline-11-carboxamide)acetyl}prolinyl-{2-(10H-indolo[3,2-b]quinoline-11-carboxamide)acetyl}prolinamide] |
| 275 | 503 | CC(=O)NC1CC(C(=O)NC2CC(C(=O)NC3CC(C(N)=O)N(C(=O)CNC(=O)c4c5ccccc5nc5ccccc45)C3)N(C(=O)CNC(=O)c3c4ccccc4nc4c3[nH]c3ccccc34)C2)N(C(=O)CNC(=O)c2c3ccccc3nc3ccccc23)C1 (stereo not shown) [Example 58, N^4-Acetyl-4-amino-{2-(acridine-9-carboxamide)acetyl}prolinyl-4-amino-{2-(10H-indolo[3,2-b]quinoline-11-carboxamide)acetyl}proliny-4-amino-{2-(acridine-9-carboxamide)acetyl}prolinamide] |
| 309 | 456 | CC(=O)N[C@H]1C[C@@H](C(=O)N[C@H]2C[C@@H](C(=O)N[C@H]3C[C@@H](C(N)=O)N(C(=O)CNC(=O)c4c5ccccc5nc5ccccc45)C3)N(C(=O)CNC(=O)c3c4ccccc4nc4ccccc34)C2)N(C(=O)CNC(=O)c2c3ccccc3nc3c2[nH]c2ccccc23)C1 [Example 60, N^4-Acetyl-4-amino-{2-(10H-indolo[3,2-b]quinoline-11-carboxamide)acetyl}prolinyl-4-amino-{2-(acridine-9-carboxamide)acetyl}prolinyl-4-amino-{2-(acridine-9-carboxamide)acetyl}prolinamide] |
| 348 | 488 | CC(=O)NC1CC(C(=O)NC2CC(C(=O)NC3CC(C(N)=O)N(C(=O)CNC(=O)c4c5ccccc5nc5c4[nH]c4ccccc45)C3)N(C(=O)CNC(=O)c3c4ccccc4nc4ccccc34)C2)N(C(=O)CNC(=O)c2c3ccccc3nc3c2[nH]c2ccccc23)C1 (stereo not shown) [Example 61, N^4-Acetyl-4-amino-{2-(10H-indolo[3,2-b]quinoline-11-carboxamide)acetyl}prolinyl-4-amino-{2-(acridine-9-carboxamide)acetyl}prolinyl-4-amino-{2-(10H-indolo[3,2-b]quinoline-11-carboxamide)acetyl}prolinamide] |
| 272 | 503 | CC(=O)N1CC(NC(=O)CNC(=O)c2c3ccccc3nc3ccccc23)C[C@H]1C(=O)N1CC(NC(=O)CNC(=O)c2c3ccccc3nc3c2[nH]c2ccccc23)C[C@H]1C(=O)N1CC(NC(=O)CNC(=O)c2c3ccccc3nc3c2[nH]c2ccccc23)C[C@H]1C(N)=O (stereo partly shown) [Example 63, N^4-Acetyl-4-amino-{2-(acridine-9-carboxamide)acetyl}prolinyl-4-amino-{2-(10H-indolo[3,2-b]quinoline-11-carboxamide)acetyl}proliny-4-amino-{2-(10H-indolo[3,2-b]quinoline-11-carboxamide)acetyl}prolinamide] |
| 347 | 488 | CC(=O)NC1CC(C(=O)NC2CC(C(=O)NC3CC(C(=O)NC4CC(C(=O)NC5CC(C(N)=O)N(C(=O)CNC(=O)c6cc(-c7ccccc7)nc7ccccc67)C5)N(C(C)=O)C4)N(C(=O)CNC(=O)c4c5ccccc5nc5ccccc45)C3)N(C(C)=O)C2)N(C(=O)CNC(=O)c2c3ccccc3nc3c2[nH]c2ccccc23)C1 (stereo not shown) [Example 64] |
| 249 | 442 | CC(=O)NC1CC(C(=O)NC2CC(C(=O)NC3CC(C(=O)NC4CC(C(=O)NC5CC(C(N)=O)N(C(=O)CNC(=O)c6c7ccccc7nc7c6[nH]c6ccccc67)C5)N(C(C)=O)C4)N(C(=O)CNC(=O)c4cc(-c5ccccc5)nc5ccccc45)C3)N(C(C)=O)C2)N(C(=O)CNC(=O)c2c3ccccc3nc3ccccc23)C1 (stereo not shown) [Example 65, N^4-Acetyl-4-amino-{2-(acridine-9-carboxamide)acetyl}prolinyl-4-aminoprolinyl-4-amino-[(2-phenyl-quinoline-4-carboxamide)acetyl]prolinamide-4-aminoprolinyl-4-amino-{2-(10H-indolo[3,2-b]quinoline-11-carboxamide)acetyl}prolinamide] |

Further lines, the molecule ahead of its results:

| Molecule | Fluorescence Excitation (nm) | Fluorescence emission (nm) |
| --- | --- | --- |
| CC(=O)NC1CC(C(=O)NC2CC(C(=O)NC3CC(C(=O)NC4CC(C(=O)NC5CC(C(=O)NC6CC(C(=O)NC7CC(C(N)=O)N(C(=O)CNC(=O)c8cc(-c9ccccc9)nc9ccccc89)C7)N(C(C)=O)C6)N(C(C)=O)C5)N(C(=O)CNC(=O)c5c6ccccc6nc6ccccc56)C4)N(C(C)=O)C3)N(C(C)=O)C2)N(C(=O)CNC(=O)c2c3ccccc3nc3c2[nH]c2ccccc23)C1 (stereo not shown) [Example 66, N^4-Acetyl-4-amino-{2-(10H-indolo[3,2-b]quinoline-11-carboxamide)acetyl}prolinyl-4-aminoprolinyl-4-aminoprolinyl-4-amino-{2-(acridine-9-carboxamide)acetyl}prolinyl-4-aminoprolinyl-4-aminoprolinyl-4-amino-[(2-phenyl-quinoline-4-carboxamide)acetyl]prolinamide] | 269 | 432 |
| CC(=O)NC1CC(C(=O)NC2CC(C(=O)NC3CC(C(=O)NC4CC(C(=O)NC5CC(C(=O)NC6CC(C(=O)NC7CC(C(N)=O)N(C(=O)CNC(=O)c8c9ccccc9nc9c8[nH]c8ccccc89)C7)N(C(C)=O)C6)N(C(C)=O)C5)N(C(=O)CNC(=O)c5cc(-c6ccccc6)nc6ccccc56)C4)N(C(C)=O)C3)N(C(C)=O)C2)N(C(=O)CNC(=O)c2c3ccccc3nc3ccccc23)C1 (stereo not shown) [Example 67] | 265 | 451 |
| CC(=O)N[C@@H](CCCNC(=O)CNC(=O)c1c2ccccc2nc2ccccc12)C(=O)N[C@@H](CCCNC(=O)CNC(=O)c1c2ccccc2nc2ccccc12)C(=O)N[C@@H](CCCNC(=O)CNC(=O)c1c2ccccc2nc2ccccc12)C(N)=O [Example 68, N^4-Acetyl-5-N-{2-(acridine-9-carboxamide)acetyl}ornithinyl-5-N-{2-(acridine-9-carboxamide)acetyl}ornithinyl-5-N-{2-(acridine-9-carboxamide)acetyl}ornithinamide] | 360 | 435 |
| CC(=O)N[C@@H](CCCNC(=O)CNC(=O)c1c2ccccc2nc2ccccc12)C(=O)N[C@@H](CCCNC(=O)CNC(=O)c1c2ccccc2nc2c1[nH]c1ccccc12)C(=O)N[C@@H](CCCNC(=O)CNC(=O)c1c2ccccc2nc2ccccc12)C(N)=O [Example 69, N^4-Acetyl-5-N-{2-(acridine-9-carboxamide)acetyl}ornithinyl-5-N-{2-(10H-indolo[3,2-b]quinoline-11-carboxamide)acetyl}ornithinyl-5-N-{2-(acridine-9-carboxamide)acetyl}ornithinamide] | 357 | 441 |
| CC(=O)N[C@@H](CCCNC(=O)CNC(=O)c1c2ccccc2nc2ccccc12)C(=O)N[C@@H](CCCNC(=O)CNC(=O)c1c2ccccc2nc2c1[nH]c1ccccc12)C(=O)N[C@@H](CCCNC(=O)CNC(=O)c1c2ccccc2nc2c1[nH]c1ccccc12)C(N)=O [Example 70, N^4-Acetyl-5-N-{2-(acridine-9-carboxamide)acetyl}ornithinyl-5-N-{2-(10H-indolo[3,2-b]quinoline-11-carboxamide)acetyl}ornithinyl-5-N-{2-(10H-indolo[3,2-b]quinoline-11-carboxamide)acetyl}ornithinamide] | 248 |  |
| CC(=O)N[C@@H](CCCNC(=O)CNC(=O)c1c2ccccc2nc2c1[nH]c1ccccc12)C(=O)N[C@@H](CCCNC(=O)CNC(=O)c1c2ccccc2nc2c1[nH]c1ccccc12)C(=O)N[C@@H](CCCNC(=O)CNC(=O)c1c2ccccc2nc2c1[nH]c1ccccc12)C(N)=O [Example 71, N^4-Acetyl-5-N-{2-(10H-indolo[3,2-b]quinoline-11-carboxamide)acetyl}ornithinyl-5-N-{2-(10H-indolo[3,2-b]quinoline-11-carboxamide)acetyl}ornithinyl-5-N-{2-(10H-indolo[3,2-b]quinoline-11-carboxamide)acetyl}ornithinamide] | 338 | 466 |

System: duplex structure of DNA
Assay: Melting experiments (DNA-duplex stabilization)
Type: physicochemical
Conditions: 1 M NaCl, 10 mM sodium phosphate buffer of pH=7; 260 nm; 1° C./min
Method: Appropriate oligonucleotides were dissolved in a solution containing 1 M NaCl, 10 mM sodium phosphate buffer of pH=7. UV Absorption spectra and melting experiments (absorbance vs temperature) were recorded in 1-cm path length cell by using a spectrophotometer, with a temperature controller and a programmed temperature increase rate of 1° C./min. Melting curves were recorded at 260 nm, and melting temperatures were measured at the maximum of the first derivatives of the melting curves.

| Molecule | Tm(° C.) [°C] |
| --- | --- |
| TTCCGGAA-p-Act-p-Qut-p-Nct: oligonucleotide 5′-TTCCGGAA-3′ carrying trimer Act-p-Qut-p-Nct at the 3′-end (DNA TTCCGGAA-{code p-Act-code p-Qut-code p-Nct}; not fully specified; cysteine pairing not given here; reading uncertain; also: DNA oligonucleotide with 3'-Act-p-Qut-p-Nct trimer) | 60 |
| TTCCGGAA-p-Act: oligonucleotide 5′-TTCCGGAA-3′ carrying fluorophore Act at the 3′-end (DNA TTCCGGAA-{code p-Act}; not fully specified; cysteine pairing not given here; reading uncertain; also: DNA oligonucleotide with 3'-phosphate-linked Act) | 47 |
| TTCCGGAA-p-Agt: oligonucleotide 5′-TTCCGGAA-3′ carrying fluorophore Agt at the 3′-end (DNA TTCCGGAA-{code p-Agt}; not fully specified; cysteine pairing not given here; reading uncertain; also: DNA oligonucleotide with 3'-phosphate-linked Agt) | 47 |

Same assay, conditions: versus unmodified oligonucleotide; 1 M NaCl, 10 mM sodium phosphate buffer of pH=7

| Molecule | ΔTm (° C.) |
| --- | --- |
| TTCCGGAA-p-Act-p-Qut-p-Nct: oligonucleotide 5′-TTCCGGAA-3′ carrying trimer Act-p-Qut-p-Nct at the 3′-end (DNA TTCCGGAA-{code p-Act-code p-Qut-code p-Nct}; not fully specified; cysteine pairing not given here; reading uncertain; also: DNA oligonucleotide with 3'-Act-p-Qut-p-Nct trimer) | +25 °C |
| TTCCGGAA-p-Act: oligonucleotide 5′-TTCCGGAA-3′ carrying fluorophore Act at the 3′-end (DNA TTCCGGAA-{code p-Act}; not fully specified; cysteine pairing not given here; reading uncertain; also: DNA oligonucleotide with 3'-phosphate-linked Act) | +12 °C |
| TTCCGGAA-p-Agt: oligonucleotide 5′-TTCCGGAA-3′ carrying fluorophore Agt at the 3′-end (DNA TTCCGGAA-{code p-Agt}; not fully specified; cysteine pairing not given here; reading uncertain; also: DNA oligonucleotide with 3'-phosphate-linked Agt) | +12 °C |
